As a reminder, the IC50 is the midpoint of a concentration-inhibition curve.

This note sets out measurements from patent US10968169B2, “Urea derivative” (Daiichi Sankyo Company, Limited, priority 2016, dated 2021).

Structures are written as SMILES. Read-outs that look alike come from different tables or passages of the source.

The test system of assay [1] is Bacteroides. In words: Indole production suppressing effect in viable bacteria. The class given is cell-based. Particulars: indole concentration in culture supernatant, read-out: Eroides Activity of Inhibiting Indole Production(IC50). Here is the method: The effect of a tryptophanase inhibitory compound to suppress indole production from a viable bacterium can be evaluated through the following operation. When E. coli (Escherichia Coli) is used as a strain known to produce indole, the strain is cultured in an LB medium at 37° C. for 12 to 18 hours under anaerobic conditions, and then, suspended in an assay medium (5 mM L-Tryptophan/PBS(+)/25 mM HEPES (pH8)) in such a manner as to obtain O.D. of about 0.3. When bacteroides is used, the strain is cultured in a modified GAM medium at 37° C. for 12 to 18 hours under anaerobic conditions, and then suspended in an assay medium (5 mM L-Tryptophan/PBS(+)/25 mM HEPES (pH8)) in such a manner as to obtain O.D. of about 1.1. The thus obtained viable bacterial suspension prepared to have a final concentration of a compound of 1 μM to 10 mM is dispensed at 200 μL per well into a 96-well plate and cultured at 37° C. for 2 to 4 hours under anaerobic conditions, and O.D., an ATP concentration (that can be quantitatively determined by using BacTiter-Glo (Promega Corporation)) and an indole concentration in the culture supernatant (that can be quantitatively determined by utilizing Ehrlich reaction) are measured. The effect of the tryptophanase inhibitory compound to suppress indole production from a viable bacterium can be evaluated depending on the degree of lowering of the indole concentration in the culture supernatant. It can be checked whether or not the effect is derived from a function other than tryptophanase inhibition, such as a bactericidal function or a bacterial growth inhibitory function, depending on lowering of the O.D. or reduction in the ATP concentration or by performing a generally practiced antibacterial activity test (a MIC (minimum growth inhibition concentration) test) using levofloxacin or the like as a positive control. The activities of inhibiting indole production of the compounds of the respective examples shown in Table 11 were measured by the above-described method using Bacteroides to evaluate the effect of inhibiting indole production.

The subject of assay [2] is indoxyl sulfate concentration in the plasma. Briefly: Effect of reducing indoxyl sulfate concentration in the plasma of mice. Format: in vivo, male BALB/c mouse. The note with it: oral. Here is the method: An effect of a tryptophanase inhibitory compound to reduce an indoxyl sulfate concentration in the plasma of a mouse can be evaluated through the following operation.
After fasting a male BALB/c mouse overnight, a tryptophanase compound dissolved or suspended at a concentration of 0.01 to 10 mg/mL in a 0.5% methylcellulose (MC) solution used as a solvent and a 0.5% MC solution are orally administered by gavage at a dose of 10 mL/kg respectively to a test compound group and to a solvent control group. When 30 minutes have elapsed after the administration of the test compound or the solvent, L-tryptophan, that is, a substrate of tryptophanase, is orally administered by gavage at a dose of 1 to 3 g/kg. The L-tryptophan is suspended in a 0.5% tragacanth solution. For 12 hours after the administration of the L-tryptophan, blood is collected over time from a tail vein by using a hematocrit tube. The thus obtained blood is centrifuged at 11,000 rpm for 5 minutes to collect plasma, and the indoxyl sulfate concentration in the plasma is measured singly by liquid chromatography (fluorescence detection) or its combination with a mass spectrometer used subsequently. The indoxyl sulfate concentration in the plasma of the test compound group against the indoxyl sulfate concentration in the plasma of the solvent control group is calculated as, for example, a ratio of the area under a curve of the indoxyl sulfate concentration, and thus, the efficacy of each compound in a living body can be compared.
The indoxyl sulfate concentrations in plasma obtained by using the compounds of the respective examples shown in Table 12 below were measured by the above-described method to evaluate the effect of reducing indoxyl sulfate concentration.

The target in assay [3] is tryptophanase of Bacteroides thetaiotamicron (Bacteroides thetaiotaomicron, UniProt Q8A7N2). In words: Tryptophanase enzyme inhibitory activity (LDH-coupled NADH loss). The class given is biochemical. Particulars: L-tryptophan 10 mM, 37° C., absorbance at 340 nm; read-out: Bacteroides Activity of Inhibiting Tryptophanase (IC50). The procedure:
Tryptophanase inhibitory activity was evaluated by a method using lactate dehydrogenase (LDH). The reaction time-dependent reduction in NADH conjugated with the enzymatic reaction, with LDH, of pyruvic acid produced through the enzymatic reaction of L-tryptophan as a substrate with tryptophanase, was measured with a spectrophotometer (Phillips-R S et al., Biochemistry, 23, 6228-6234 (1984)). Enzyme inhibitory activity obtained without adding a test compound (by adding DMSO alone) in the presence of tryptophanase was used as a control. As the enzyme, tryptophanase of Bacteroides thetaiotamicron (Genbank accession number: HC914434.1) was used. A test compound solution was prepared by dissolving each test compound in DMSO in an arbitrary concentration (from 30 mM to 30 nM at 10-fold common ratio). LDH, NADH and L-tryptophan were prepared, using distilled water, respectively to concentrations of 80 units/mL, 10 mM and […]. Bacteroides tryptophanase was prepared to 30 mg/mL. A potassium phosphate buffer was used as the buffer. [table] A reaction solution A was dispensed at 284.8 μL per well into a 96-well plate, and the test compound solution was added at 3.2 μL per well to obtain a final concentration of 1/100 (reaction solution B). The reaction solution B was incubated at 37° C. for 30 minutes, L-tryptophan was added thereto at 32 μL per well to obtain a final concentration of 10 mM (reaction solution C), and the enzyme reaction was performed at 37° C. over 30 minutes with absorbance at 340 nm measured for monitoring the NADH loss. Based on the NADH loss, the tryptophanase inhibitory activity of the compound was evaluated. Besides, the following compounds were similarly tested instead of the test compound.

Chain of tryptophanase of Bacteroides thetaiotamicron (Q8A7N2 entry or part of it, change not shown): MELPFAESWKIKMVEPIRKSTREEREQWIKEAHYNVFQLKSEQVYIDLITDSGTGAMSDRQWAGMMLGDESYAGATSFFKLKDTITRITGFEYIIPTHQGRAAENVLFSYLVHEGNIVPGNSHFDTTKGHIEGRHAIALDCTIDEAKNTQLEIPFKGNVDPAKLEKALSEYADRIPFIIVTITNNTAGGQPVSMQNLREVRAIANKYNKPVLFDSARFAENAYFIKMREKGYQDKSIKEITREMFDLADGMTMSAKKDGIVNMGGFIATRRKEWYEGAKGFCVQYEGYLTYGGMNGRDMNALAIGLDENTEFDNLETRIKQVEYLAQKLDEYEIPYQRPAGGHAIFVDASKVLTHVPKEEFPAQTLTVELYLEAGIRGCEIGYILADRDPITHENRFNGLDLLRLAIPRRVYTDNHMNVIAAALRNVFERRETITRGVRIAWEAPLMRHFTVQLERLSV

Take `CC[C@@](C)(NC(=O)Nc1ccc(OC(F)F)c(F)c1)C(=O)O` [Example 15, (−)-N-{[4-(Difluoromethoxy)-3-fluorophenyl]carbamoyl}-D-isovaline]: the IC50 in assay [1] (Bacteroides) amounted to 14 µM; in assay [3] it was 13.5 µM. Moreover, in assay [2], the “Indoxyl Sulfate Reduction Effect in Male BALB/c Mouse Plasma (Indoxyl sulfate reduction effect in plasma 6 hours after administering L-tryptophan: ED75−, mg/kg)” value (“Indoxyl Sulfate Reduction Effect” below) stood at 1 mg/kg.
On the same counts, the results for `CC[C@@](C)(NC(=O)Nc1ccc(Cl)cc1)C(=O)O` [Example 25, (−)-N-[(4-Chlorophenyl)carbamoyl]-D-isovaline] are 23 µM, 26.8 µM and 1 mg/kg.
For `CCC(CC)(NC(=O)Nc1ccc(F)cc1)C(=O)O` [Compound D, 2-ethyl-2-{[(4-fluorophenyl)carbamoyl]amino}butanoic acid] the same measures were 11 µM, 38.1 µM and 1 mg/kg.
For `CCC(CC)(NC(=O)Nc1csc(Cl)c1)C(=O)O` [Example 27, 2-{[(5-Chlorothiophen-3-yl)carbamoyl]amino}-2-ethylbutanoic acid] the same measures were 5 µM, 6 µM and 1 mg/kg.
For `CC[C@@](C)(NC(=O)Nc1ccc(Br)cc1)C(=O)O` [Example 30, (−)-N-[(4-Bromophenyl)carbamoyl]-D-isovaline], the values for the IC50 in assay [1] (Bacteroides) and in assay [3] were 14 µM and 22.1 µM, respectively. Also, the “Indoxyl Sulfate Reduction Effect” value in assay [2] was 1 mg/kg.
For `CCC(CC)(NC(=O)Nc1cccc(Cl)c1)C(=O)O` [Compound B, 2-{[(3-chlorophenyl)carbamoyl]amino}-2-ethylbutanoic acid] the same measures were < 3 µM, 7.4 µM and >1 mg/kg.
For `CCC(CC)(NC(=O)Nc1ccc(CC#N)cc1)C(=O)O` [Compound G, 2-({[4-(cyanomethyl)phenyl]carbamoyl}amino)-2-ethylbutanoic acid] the same measures were 8 µM, 4.7 µM and 1 mg/kg.
With `CC[C@@](NC(=O)Nc1cccc(C#N)c1)(C(=O)O)C1CC1` [(−) Isomer Compound of Example 33, (−)-2-{[(3-cyanophenyl)carbamoyl]amino}-2-cyclopropylbutanoic acid], the figures for the IC50 in assay [1] and in assay [3] were 9 µM and 7.7 µM, respectively. Besides, the “Indoxyl Sulfate Reduction Effect” value in assay [2] was >1 mg/kg.
For `CC[C@@](C)(NC(=O)Nc1ccc(OC(F)F)cc1)C(=O)O` [Example 8, (−)-N-{[4-(Difluoromethoxy)phenyl]carbamoyl}-D-isovaline], the IC50 is 7 µM in assay [1] (Bacteroides) and 12.8 µM in assay [3]. In addition, the “Indoxyl Sulfate Reduction Effect” value in assay [2] is given as 1 mg/kg.
For `CC[C@@](C)(NC(=O)Nc1ccc(I)cc1)C(=O)O` [Example 31, (−)-N-[(4-Iodophenyl)carbamoyl]-D-isovaline] the same measures were < 3 µM, 7.9 µM and 1 mg/kg.
On the same counts, the results for `CCC(CC)(NC(=O)Nc1ccc(Cl)cc1)C(=O)O` [Compound C, 2-{[(4-chlorophenyl)carbamoyl]amino}-2-ethylbutanoic acid] are 6 µM, 16 µM and >1 mg/kg.
For `CCC(CC)(NC(=O)Nc1ccsc1)C(=O)O` [Compound H, 2-ethyl-2-[(thiophen-3-ylcarbamoyl)amino]butanoic acid], the IC50 in assay [1] (Bacteroides) stood at 11 µM; in assay [3] it was 34.1 µM. For the same compound, in assay [2], the “Indoxyl Sulfate Reduction Effect” value stood at 1 mg/kg.
On the same counts, the results for `CCC(CC)(NC(=O)Nc1cccc(C#N)c1)C(=O)O` [Compound F, 2-{[(3-cyanophenyl)carbamoyl]amino}-2-ethylbutanoic acid] are 12 µM, 16.5 µM and 1 mg/kg.
In the case of `CCC(NC(=O)Nc1cccc(C#N)c1)(C(=O)O)C1CC1` (single isomer, unassigned) [(+) Isomer Compound of Example 33, (+)-2-{[(3-Cyanophenyl)carbamoyl]amino}-2-cyclopropylbutanoic acid], the IC50 in assay [1] was < 3 µM; in assay [3], 0.6 µM. Further, the “Indoxyl Sulfate Reduction Effect” value in assay [2] stood at 1 mg/kg.
As to `CCC(CC)(NC(=O)Nc1ccccc1)C(=O)O` [Compound A, 2-ethyl-2-[(phenylcarbamoyl)amino]butanoic acid], the IC50 was 8 µM in assay [1] (Bacteroides) and 20 µM in assay [3]. In addition, the “Indoxyl Sulfate Reduction Effect” value in assay [2] was 1 mg/kg.
In the case of `O=C(Nc1ccc(OC(F)(F)F)cc1)NC(C(=O)O)(C1CC1)C1CC1` [Example 5, Dicyclopropyl({[4-(trifluoromethoxy)phenyl]carbamoyl}amino)acetic acid], the IC50 in assay [3] was 1.7 µM.
Regarding `CCC(CC)(NC(=O)Nc1cccc(F)c1)C(=O)O` [Compound E, 2-ethyl-2-{[(3-fluorophenyl)carbamoyl]amino}butanoic acid], the IC50 in assay [1] (Bacteroides) amounted to 7 µM; in assay [3], 18.9 µM. For the same compound, the “Indoxyl Sulfate Reduction Effect” value in assay [2] is recorded as >1 mg/kg.
